According to patent US11974990B2, “TXNIP-TRX complex inhibitors and methods of using the same” (City of Hope, priority 2018, dated 2024):
Like-named read-outs stand apart in the source and are kept apart here.

Legend:
TXNIP mRNA = TXNIP mRNA expression (RT-PCR) in THP1 cells under 25 mM glucose; format: cell-based, human; settings: THP1, 25 mM glucose, 5 uM compound, 72 h / three days (FIG. 13)
Experimental: FIGS. 9A-9B. FIG. 9A. […] THP1 cells were cultured in 25 mM glucose with the indicated concentrations of C1 for 72 h. Cell were collected for total RNA preparation. RT-PCR were performed and data shown are the mean+SEM from triplicates. Statistical analysis was performed using one-way ANOVA, *<0.0001. FIG. 9B. […] THP1 cells were cultured in 25 mM glucose and C1 (uM) as indicated for 72 hours and collected for total RNA preparation. RT-PCR was performed. Data shown are the mean+SEM from triplicates. Statistical analysis was performed using one-way ANOVA: *<0.02; **<0.0001.
FIG. 13. C1 analogs affects TXNIP mRNA expression in THP1 cells. THP1 cells were cultured in 25 mM glucose with 5 uM of compounds for 72 h. Total RNA was collected and RT-PCR was performed in triplicate and data shown are the mean+SEM. Statistical analysis was performed using one-way ANOVA: *<0.0001.
RNA extraction and quantitative RT-PCR. RNA was extracted using the Direct-zol™ RNA MiniPrep Plus (Zymo Research). […] Diluted cDNA was quantified using real-time PCR performed with Power SYBR Green qPCR MasterMix (Applied Biosystem) and 7500 real-time PCR system (Applied Biosystems). […]
RNA extraction and quantitative RT-PCR. […] Diluted cDNA was quantified using real-time PCR performed with Power SYBR Green qPCR MasterMix (Applied Biosystem) and 7500 real-time PCR system (Applied Biosystems). […]

TXNIP-TRX complex [1] = target: T1, TXNIP-TRX complex (Homo sapiens, UniProt Q9H3M7); test: Co-IP of TXNIP with TRX in THP1 monocytes treated with compounds under high glucose; format: cell-based; settings: THP1 cells, compounds added to cells in culture overnight, glucose to 25 mM, 72-96 h; anti-TRX IP
T1 construct: Co-immunoprecipitation (Co-IP) of TXNIP with TRX in THP 1 monocytes cells treated with compounds under high glucose condition; endogenous in cells; host or cells: THP1 human monocytes cultured in 25 mM glucose
T1 sequence (Q9H3M7 1-391): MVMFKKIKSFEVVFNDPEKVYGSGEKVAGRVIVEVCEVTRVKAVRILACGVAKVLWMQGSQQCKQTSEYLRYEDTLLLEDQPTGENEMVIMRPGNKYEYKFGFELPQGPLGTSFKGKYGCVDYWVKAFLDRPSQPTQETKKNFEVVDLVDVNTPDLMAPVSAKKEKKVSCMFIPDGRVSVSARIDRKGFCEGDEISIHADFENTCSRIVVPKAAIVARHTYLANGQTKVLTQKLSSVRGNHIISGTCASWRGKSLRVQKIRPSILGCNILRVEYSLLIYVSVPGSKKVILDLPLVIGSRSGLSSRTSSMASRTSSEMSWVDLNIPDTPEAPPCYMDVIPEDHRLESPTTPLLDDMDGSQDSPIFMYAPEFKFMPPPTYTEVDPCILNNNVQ
Experimental: FIGS. 4A-4B. Co-IP with anti-TRX in THP 1 cells treated with compounds under high glucose condition. THP1 cells were treated by 10 uM compounds over night, then glucose was added up to 25 mM. The cells were cultured for 72-96 h. Cell extracts were prepared using cell extract buffer (Thermo Fisher Scientific) and Co-IP were performed with mouse anti-TRX (abcam).
Assay 1: Co-immunoprecipitation (Co-IP) of TXNIP with TRX in THP 1 monocytes cells treated with compounds under high glucose condition. In this assay, we looked for compounds that can interfere with the interaction between TXNIP and TRX in THP-1 monocytes treated with HG. So here compounds are added to cells in culture. […] So we picked the candidates only if the results are repeatable.
Co-IP with compounds treated THP1 under high glucose condition. THP1 cells were treated with compounds (2.5 uM) overnight and glucose was add to 25 mM and culture for 3-5 days, then coIP were carried using co-IP protocol.
(§1) 1. Transfer the cultured cells from the culture dish to a 15-mL conical tube. 2. Centrifuge at 500×g for 2 min at 4° C. and remove the supernatant. 3. Wash with ice-cold PBS and centrifuge at 500×g for 2 min at 4° C. Remove the supernatant. 4. Repeat Step 3 twice.
5. Resuspend the cell pellet in ice-cold cell lysis buffer (1 mL per 1×10^7 cells) and incubate on ice for 10 min. 6. Sonicate cells in ice bath three times for 5 second pulses each. 7. Centrifuge at 13,000×g at 4° C. for 10 min, and transfer the supernatant to a fresh tube. Store the tube on ice for further use, or for long storage at −80° C.
8. Resuspend the magnetic beads by pipetting up and down for several times. 9. Transfer 20 μL of bead slurry to a fresh tube. Place the tube in a magnetic separation rack […]. Carefully remove the supernatant once the solution is clear. 10. […]
(§2) Note: Pre-clearing the lysate is recommended to reduce the non-specific binding. However, if the protein is detected by western blotting, pre-clearing may not be necessary unless a contaminating protein is interfering with visualization of the protein of interest. […]

TXNIP-TRX complex [2] = target: T1, TXNIP-TRX complex; test: Co-IP using extracts from high glucose treated THP1 cells in the presence of compounds; format: biochemical; settings: extracts of THP1 cells treated with 25 mM glucose 3 days; compounds added to extract (5 uM)
Experimental: Assay 2: Co-IP using extracts from THP 1 cells treated high glucose and in the presence of compounds. In this assay, TXNIP is already highly expressed (because the cells are treated with HG), we assume there is high concentration of TXNIP/TRX complexes in the cell extract. Co-IPs were done in these extracts through adding TRX antibody and compounds. If a compound is able to break the (pre-formed) TXNIP/TRX complex, there will be a reduced signal (band intensity) in the assay.
Co-IP with THP1 high glucose treated extract in the presence of the compounds. THP1 cells were treated with 25 mM glucose for 3 days, the cell extract were prepared. Them 300 ul extract were used for TP. Compounds were added to 5 uM Co-IP were followed according to the Co-IP protocol.
as §1
5. Resuspend the cell pellet in ice-cold cell lysis buffer (1 mL per 1×10^7 cells) and incubate on ice for 10 min. 6. […]
as §2

TXNIP = settings: as reported in the literature, cited from earlier work

Compound	TXNIP mRNA expression (TXNIP mRNA)	HG-induced TXNIP-TRX co-IP band intensity (TXNIP-TRX complex [1])	effect on pre-formed TXNIP/TRX complex (co-IP band intensity) (TXNIP-TRX complex [2])	TXNIP expression (TXNIP)	TXNIP expression (TXNIP; listed as Metformin)
CC(=O)Nc1ccc(NC(=O)C(C)N2C(=O)c3ccncc3C2=O)cc1 (centres unmarked) [Compound A31]	displayed significant inhibitory effects on TXNIP mRNA expression				
CN(C)C(=N)N=C(N)N [metformin, reference compound]		reduces the intensity of the band showing TXNIP-TRX binding	does not have any effect on TXNIP/TRX complex	reduce TXNIP expression	can reduce the expression of TXNIP through the AMPK pathway
